What was measured:
5-HT1D = molecular target: T1, 5-HT1D (Homo sapiens, UniProt P28221); assay: Radioligand binding assay, 5-HT1D
T1 construct: expressed in transfected cells
Description: (§1) [^3H] […] The reactions are incubated at room temperature for 3 hr. and then counted in a Trilux Microbeta™ scintillation counter to detect receptor-bound radioligand. Binding data are analyzed by computer-assisted 4 parameter fit analysis (ID Business Solutions Ltd, Guildford, Surrey, UK). […]
(§2) Affinity for other serotonin receptor subtypes as well as for alpha 1 & 2 adrenergic receptors can readily be determined by modification of the above described radioligand receptor binding assay using membranes derived from cells stably expressing the desired receptor subtype including the 5-HT1A, 5-HT1B, and 5-HT1D subtypes, as well as the 5-HT2A, 5-HT2B, 5-HT2C, 5-HT4, 5-HT7, and 5-HT6 receptor subtypes. […]

5-HT1A = molecular target: T2, 5-HT1A (Homo sapiens, UniProt P08908); assay: Radioligand binding assay, 5-HT1A
T2 construct: expressed in transfected cells
T2 sequence (P08908 1-422): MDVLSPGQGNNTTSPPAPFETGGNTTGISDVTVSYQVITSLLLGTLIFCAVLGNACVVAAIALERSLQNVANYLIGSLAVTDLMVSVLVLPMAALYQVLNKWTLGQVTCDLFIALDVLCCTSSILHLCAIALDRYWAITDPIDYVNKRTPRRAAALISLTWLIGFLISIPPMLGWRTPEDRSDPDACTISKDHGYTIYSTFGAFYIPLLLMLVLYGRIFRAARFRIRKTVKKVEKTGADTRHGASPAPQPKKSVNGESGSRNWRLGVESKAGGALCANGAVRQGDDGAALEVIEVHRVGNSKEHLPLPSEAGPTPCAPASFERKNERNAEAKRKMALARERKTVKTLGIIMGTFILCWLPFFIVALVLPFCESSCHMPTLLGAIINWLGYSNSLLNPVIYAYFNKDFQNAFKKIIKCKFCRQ
Description: as §1, §2

alpha 1 adrenergic = assay: Radioligand binding assay, alpha 1 adrenergic
Description: as §1, §2

[1] = system: dural plasma protein extravasation; assay: Animal model of dural plasma protein extravasation (PPE); format: in vivo; conditions: rat
From the text: The dural plasma protein extravasation model is an established model for migraine. The ability of a test compound to reduce extravasation of plasma proteins into the dura under assay conditions is considered indicative of the compound's ability to reduce or prevent the dural inflammation thought to be symptomatic of migraine. (see Johnson, K. W., et al., Neuroreport, 8 (1997) 2237-2240.)
To assay compounds for their ability to reduce or prevent dural plasma protein extravasation, male Harlan Sprague-Dawley rats (250-350 g) are anesthetized with sodium pentobarbital (65 mg/kg, i.p.) and placed in a stereotaxic frame (David Kopf Instruments) with the incisor bar set at −2.5 mm. Following a midline sagital scalp incision, 2 pairs of bilateral holes are drilled through the skull (3.2 mm posterially, 1.8 and 3.8 mm laterally, all coordinates referenced to bregma). […]
The amount of FITC-BSA for each sample is quantified with a fluorescence microscope (Zeiss) equipped with a grating monochromator, a spectrophotometer, and a computer driven stage. Fluorescence measurements are taken at 25 points in a 5×5 grid in 500 μm steps on each dural sample with an excitation wavelength of approximately 490 nm and emission intensity measured at approximately 535 nm. The mean and standard deviation of the 25 measurements are determined. […]

5-HT5 = molecular target: T3, 5-HT5 (Homo sapiens, UniProt P47898); assay: Radioligand binding assay, 5-HT5
T3 construct: expressed in transfected cells
T3 sequence (P47898 whole entry): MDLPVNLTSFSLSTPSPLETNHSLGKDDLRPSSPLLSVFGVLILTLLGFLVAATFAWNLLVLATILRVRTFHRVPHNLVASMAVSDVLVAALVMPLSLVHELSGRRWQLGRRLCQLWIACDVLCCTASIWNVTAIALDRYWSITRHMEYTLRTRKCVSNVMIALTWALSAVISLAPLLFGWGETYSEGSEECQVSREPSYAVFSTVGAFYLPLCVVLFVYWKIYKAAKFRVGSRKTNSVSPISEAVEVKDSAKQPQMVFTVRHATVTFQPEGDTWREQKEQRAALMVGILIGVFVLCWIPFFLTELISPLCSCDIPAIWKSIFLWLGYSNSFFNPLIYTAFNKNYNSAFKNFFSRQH
Description: as §1, §2

5-HT2B = molecular target: T4, 5-HT2B (Homo sapiens, UniProt P41595); assay: Radioligand binding assay, 5-HT2B
T4 construct: expressed in transfected cells
T4 sequence (P41595 whole entry, species assumed): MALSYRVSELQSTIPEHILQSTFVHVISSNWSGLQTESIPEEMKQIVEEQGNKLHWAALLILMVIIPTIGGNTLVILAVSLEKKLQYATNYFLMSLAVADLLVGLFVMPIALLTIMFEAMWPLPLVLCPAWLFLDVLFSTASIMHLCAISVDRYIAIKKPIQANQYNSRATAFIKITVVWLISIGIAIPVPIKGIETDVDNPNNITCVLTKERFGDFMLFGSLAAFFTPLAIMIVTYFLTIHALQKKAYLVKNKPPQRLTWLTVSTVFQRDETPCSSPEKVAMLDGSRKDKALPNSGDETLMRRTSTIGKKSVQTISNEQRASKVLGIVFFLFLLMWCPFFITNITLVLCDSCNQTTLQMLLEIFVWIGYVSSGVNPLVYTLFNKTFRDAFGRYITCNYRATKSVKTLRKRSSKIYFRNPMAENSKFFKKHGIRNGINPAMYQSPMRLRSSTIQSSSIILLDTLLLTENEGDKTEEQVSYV
Description: as §1, §2

alpha 2 adrenergic = assay: Radioligand binding assay, alpha 2 adrenergic
Description: as §1, §2

5-HT2A = molecular target: T5, 5-HT2A (Homo sapiens, UniProt P28223); assay: Radioligand binding assay, 5-HT2A
T5 construct: expressed in transfected cells
T5 sequence (P28223 whole entry, species assumed): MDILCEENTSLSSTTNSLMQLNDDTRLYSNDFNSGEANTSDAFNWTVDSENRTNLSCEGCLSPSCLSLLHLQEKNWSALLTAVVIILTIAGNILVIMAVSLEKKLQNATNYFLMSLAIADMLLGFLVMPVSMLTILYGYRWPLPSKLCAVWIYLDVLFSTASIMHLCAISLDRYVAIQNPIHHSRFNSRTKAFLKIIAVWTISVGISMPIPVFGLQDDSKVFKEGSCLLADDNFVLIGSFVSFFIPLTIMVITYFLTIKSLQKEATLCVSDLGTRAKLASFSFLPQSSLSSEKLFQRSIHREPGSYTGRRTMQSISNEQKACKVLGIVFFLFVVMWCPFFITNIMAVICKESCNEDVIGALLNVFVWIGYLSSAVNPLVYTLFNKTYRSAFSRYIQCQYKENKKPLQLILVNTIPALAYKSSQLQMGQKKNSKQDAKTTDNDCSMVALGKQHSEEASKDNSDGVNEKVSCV
Description: as §1, §2

T1 sequence (P28221 whole entry, species assumed): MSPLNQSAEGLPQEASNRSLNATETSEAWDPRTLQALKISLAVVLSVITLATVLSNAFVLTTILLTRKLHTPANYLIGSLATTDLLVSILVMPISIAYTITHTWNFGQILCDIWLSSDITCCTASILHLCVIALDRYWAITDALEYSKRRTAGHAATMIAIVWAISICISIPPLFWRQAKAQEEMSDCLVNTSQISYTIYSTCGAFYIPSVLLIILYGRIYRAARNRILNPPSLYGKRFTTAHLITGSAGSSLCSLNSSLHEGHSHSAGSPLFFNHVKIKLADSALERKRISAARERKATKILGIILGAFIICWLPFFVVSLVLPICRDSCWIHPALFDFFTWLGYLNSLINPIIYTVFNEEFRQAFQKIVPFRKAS

Q: What does the source list for CCn1ncc(CN2CCN(c3cccnc3N3CCC(O)CC3)CC2)c1C.Cl [Example 1, 3′-[4-(1-Ethyl-5-methyl-1H-pyrazol-4-ylmethyl)-piperazin-1-yl]-3,4,5,6-tetrahydro-2H-[1,2]bipyridinyl-4-ol hydrochloride]?
A: Ki (5-HT1D): 1840 nM; Ki (5-HT1A): 213 nM; Ki (alpha 1 adrenergic): 1380 nM; ratio of extravasation in the dura, stimulated side over unstimulated side ([1]; at 0.1 mg/Kg, saline control approximately 2.0, full prevention approximately 1.0): about 1.15; ID100 ([1]; electrical stimulation of trigeminal ganglion, route not stated for the result): 0.1 mg/kg; Ki (5-HT5): 4550 nM; Ki (5-HT2B): > 6810 nM; Ki (alpha 2 adrenergic): > 2670 nM; Ki (5-HT2A): > 7470 nM
